Test results as given in USRE47141E1, “Methods of treating fibrosis, cancer and vascular injuries” (EWHA University—Industry Collaboration Foundation, priority 2010, dated 2018).

Columns and labels:
[1] = test system: TGF-β1-induced Smad2/3 nuclear translocation in MCF10A cells; assay: Immunofluorescence assay; assay type: cell-based; conditions: TGF-β1 2 ng/mL, 1 μM, 2 h
Protocol: MCF10A cells were plated on the cover glass in 6-well plate at 2×10^5 cells/well. After 12 h, when cells were attached, 10% FBS medium was changed to 0.5% FBS medium. […] Then, cells were fixed with 4% formaldehyde solution for 30 min at room temperature and quenched with quenching solution (50 mM NH4Cl in PBS) for 15 min. After being washed three times with PBS, cells were incubated with blocking/permeabilization solution (1% BSA and 0.1% Triton X-100 in PBS) for 1 h at room temperature and incubated with anti-Smad2/3 antibody (BD Biosciences, Franklin Lakes, N.J., USA) overnight at 4° C. Fluorescence was visualized by Cy3-conjugated goat anti-mouse IgG (Jackson ImmunoResearch Laboratories, Bar Harbor, Me., USA). Nuclei of the same cells were stained with DAPI solution. Cells were analyzed using the LSM 510 META laser confocal microscopy system (Carl Zeiss, Germany).

[2] = test system: BALB/c 4T1 xenografted mice; assay: Anti-metastatic effect on BALB/c 4T1 xenografted mice model; assay type: in vivo
Protocol: Female BALB/c mice were purchased from Orient Bio Inc. (Seoul, Korea). Animals were maintained in a temperature-controlled room (22° C.) and supplied with food and water ad libitum. 4T1 cells (1.2×10^4 cells) were suspended in PBS and implanted into the left #4 mammary fat pad of five to six-week-old female BALB/c mice (day 0). In Experiment 1, treatment was started after tumor implantation (day 0). […] In Experiment 2, treatment was started on day 4. […] In Experiment 3, treatment was started on day 4. […] In Experiment 4, 4T1 cells (1×10^4 cells) were suspended in PBS and implanted into the left #4 mammary fat pad of ten-week-old female BALB/c mice (day 0). Treatment was started on day 10. Example 61 (43.6 mg/kg) dissolved in saline was given to mice intraperitoneally every other day for 2.5 weeks. In all Experiments, mice were sacrificed at 24 to 72 h after the last dosing, and 15% India ink solution (Hardy Diagnostics) in PBS was immediately injected into the trachea. […] Number of metastatic nodule was counted on the surface of left lobe of lung, and picture of lung was taken with digital camera. The tumor size was measured using calipers, and the tumor volume was calculated by using the following equation: Tumor volume=(0.5236)×(width)^2×(length)
Either vehicle buffer (4 mM HCl, 1 mg/mL BSA) or TGF-β1 (50 ng/mouse) in vehicle buffer was given to mice intravenously at 2 h before mice were sacrificed. Tumor tissues from mice were lysed in RIPA buffer [50 mM Tris, pH 7.5, 150 mM NaCl, 0.1% sodium dodecyl sulfate, 0.5% sodium deoxycholate, 1% NP-40, 1 mM NaF, 1 mM Na3VO4, 1 mM PMSF, a protease inhibitor cocktail (1 tablet of Roche Diagnostics GmbH protease inhibitor cocktail/10 mL) (Roche)] for 20 min on ice. Lysates were cleared by centrifugation at 13000 rpm at 4° C. for 20 min. Protein content of supernatants was determined using Micro-BCA (bicinchoninic acid) protein assay kit (Thermo Scientific). Lysates containing 20-50 μg total protein were separated by electrophoresis on polyacrylamide gel and then electrophoretically transferred to polyvinylidene difluoride transfer membranes (Millipore, Billerica, Mass., USA). Membranes were blocked with 5% BSA (Sigma-Aldrich) in PBS containing 0.5% Tween-20 (PBST) for 1 h and incubated overnight at 4° C. with one of following antibodies: anti-phospho-Smad2 (Millipore), anti-Smad2/3 (BD Transduction Laboratories, NJ, USA), or anti-β-actin (Sigma-Aldrich) in PBST containing 1% BSA. […] Bound antibodies were detected using Western Blotting Luminol Reagent (SantaCruz Biotechnology). Band intensities were analyzed using a densitometer LAS-3000 imager (FUJIFILM, Tokyo, Japan).

MCF10A cells = assay: Wound healing assay; assay type: cell-based; conditions: TGF-β1 2 ng/mL, 1 μM, 16 h
Protocol: MCF10A cells were seeded at 2×10^5 cells/well in 6-well plate. When each well was occupied by cells over 80% of the area, 10% FBS was changed to 0.2% FBS. […] Wound area change from 0 to 16 h was calculated based on Image J program (National Institutes of Health, MD, USA) based on phase-contrast images of cells taken by microscope.

4T1 cells = assay: Matrigel invasion assay; assay type: cell-based; conditions: TGF-β1 2 ng/mL, 20 h
Protocol: The upper surface of Transwells (6.5 mm diameter, 8 μm pore size; […] After incubation for 20 h at 37° C. in 5% CO2, the cells remaining on the upper surface of the membrane were removed with a cotton swab, and DAPI-stained cells remaining on the bottom surface were observed using fluorescence microscopy. Average cell number per view field was obtained from 5 random fields.

ALK4 = ALK4 (Homo sapiens (Human), UniProt P36896); assay: Cell-free assay for inhibition of ALK4 kinase phosphorylation; assay type: biochemical
Protocol: ALK5 protein was expressed in Sf9 insect cells as human recombinant GST-fusion protein using the baculovirus expression system. Expressed protein was purified by affinity chromatography using GSH-agarose (Sigma-Aldrich). Kinase assay was performed in 96-well FlashPlates™ from Perkin Elmer (Boston, Mass., USA) in a 50 μL reaction volume. The reaction cocktail was pipetted in four steps in the following order: 20 μL of assay buffer (standard buffer), 5 μL of ATP solution in H2O, 5 μL of each test compounds of formula (I) in 10% DMSO, 10 μL of GSK3 (14-27) (200 ng)/10 μL of ALK5 solution (1 ng) (premixed). The reaction cocktail contained 60 mM HEPES-NaOH, pH 7.5, 3 mM MgCl2, 3 mM MnCl2, […], 1.2 mM DTT, 50 μg/mL PEG20000, 1 μM [γ-^33P]-ATP (approximately 2.5×10^5 cpm per well), 200 ng/10 μL GSK3 (14-27), and 1 ng/10 μL ALK5. The reaction cocktail was incubated at 30° C. for 60 min. […] Incorporation of ^33Pi (counting of “cpm”) was determined with a microplate scintillation counter (Microbeta, Wallac).
Inhibition of the ALK4 kinase phosphorylation by test compounds of formula (I) can be determined in a similar manner to that described above for ALK5 inhibition except that GST-tagged ALK4 (Invitrogen Corporation) and RBER-CHKtide are used in place of the GST-tagged ALK5 and GSK3 (14-27).

ALK4, sequence (P36896 24-505): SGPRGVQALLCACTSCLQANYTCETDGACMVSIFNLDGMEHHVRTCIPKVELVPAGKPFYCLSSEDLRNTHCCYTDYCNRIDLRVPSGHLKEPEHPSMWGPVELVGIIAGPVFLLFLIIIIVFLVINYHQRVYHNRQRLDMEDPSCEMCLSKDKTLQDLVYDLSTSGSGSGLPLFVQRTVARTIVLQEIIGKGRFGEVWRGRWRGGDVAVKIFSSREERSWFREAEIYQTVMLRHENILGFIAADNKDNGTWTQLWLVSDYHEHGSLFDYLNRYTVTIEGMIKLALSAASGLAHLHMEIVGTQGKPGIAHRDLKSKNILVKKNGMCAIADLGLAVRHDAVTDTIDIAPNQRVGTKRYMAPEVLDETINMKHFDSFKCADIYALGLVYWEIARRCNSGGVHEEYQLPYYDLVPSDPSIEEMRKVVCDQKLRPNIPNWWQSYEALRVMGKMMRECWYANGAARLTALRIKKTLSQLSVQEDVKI

## Cc1cccc(-c2[nH]c(CNc3ccccc3F)nc2-c2ccc3ncnn3c2)n1 [Example 2, N-((4-([1,2,4]triazolo[1,5-a]pyridin-6-yl)-5-(6-methylpyridin-2-yl)-1H-imidazol-2-yl)methyl)-2-fluoroaniline]
[1]
  TGF-β1-induced Smad2/3 nuclear translocation: suppressed
[2]; Example 3 13.6 or 27.3 mg/kg orally BID, four weeks, Example 2 5, 10, 20, or 40 mg/kg orally, Example 61 43.6 mg/kg intraperitoneally every other day, 2.5 weeks
  number of metastastic nodules on the lung: significantly reduced
[2]; Experiment 3, 5, 10, 20, or 40 mg/kg orally every other day for 24 days, Western blot
  TGF-β1-induced Smad2 phosphorylation in tumor tissues: suppressed
MCF10A cells
  TGF-β1-induced cell migration: suppressed
4T1 cells
  TGF-β1-induced cell invasion: suppressed
ALK4
  IC50: 17.3 nM
